Read-outs that look alike come from different tables or passages of the source.
Experiments:
[1] = 470-670 nm (fluorescein), 500-700 nm (eosin), 600-800 nm (allophycocyanin); cited from earlier work
human white blood cells = test: Staining of lysed whole blood, fluorescence by flow cytometry; assay type: cell-based; conditions: 1 uM dye
Procedure: After characterizing the various xanthene dyes prepared in accordance with this invention, one of the dyes (VBDB) was used to stain cells. The ability of VBDB to stain cells was compared with BCECF-AM, a membrane permeable esterase substrate (Molecular Probes) and fluorescein diacetate (FDA). […] After incubation, the tube was centrifuged. This procedure specifically lyses red blood cells leaving the white cells intact and viable. The supernatant was removed and the white blood cells which remained were washed twice and resuspended in blood cell diluent (1 mL, Diagnostic Technology, Inc.). The cell concentration and the percentage of dead cells were ascertained by counting the cells manually using a fluorescent microscope and a hemacytometer; acridine orange and ethidium bromide were used to stain live and dead cells respectively.
Four samples of approximately 1.7×10^6 cells then were placed in polystyrene tubes. To each tube was added one of the following solutions (1 mL): FDA (1 uM) BCECF-AM (1 uM), VBDB (0.8 uM), or VBDB (8.0 uM). The dye solutions were prepared by diluting a stock solution of each dye (1-8 mM in DMSO) into blood cell diluent. The tubes were kept at room temperature for 30 minutes. The samples were washed three times and resuspended in blood cell diluent (1 mL).
A bandpass 530/30 emission filter was used for both FDA and BCECF-AM, while a bandpass 660/20 emission filter was used for VBDB. Data from 10,000 events were acquired from each of these samples immediately after staining, one hour after staining, and two hours after staining.
Referring to FIG. 2, VBDB, BCECF-AM and FDA were compared as vital dyes by staining lysed whole blood and examining the fluorescence by flow cytometry. […] Four samples of cells were incubated with BCECF AM (1 uM), FDA (1 uM) and VBDB (0.8 uM, 8.0 uM). The cells were analyzed immediately after staining (t=0), after one hour (t=1) and after two hours (t=2).
The data in FIG. 2 also was used to quantitate the "live" cells and the "dead" cells. […] It was assumed the live cells were those cells which retained the dye (the right peak) and that dead cells were those cells whose membranes had become leaky (the left peak). By setting the gate to the immediate left of the main peak, the "dead" cells to the left of the gate were counted.

[2] = Absorbance maximum and extinction coefficient; assay type: physicochemical; conditions: for red shift of absorbance maxima vs carboxy analogs: compared to carboxy analogs 1, 4 and 7
Procedure: First, the extinction coefficient of compounds 1-9 and 14 was determined. Stock solutions (5×10^-3 M) of each dye were made by dissolving the dye in two equivalents of 0.1 N NaOH and making up the volume with carbonate/bicarbonate buffer (0.16, 0.34 M, pH 9.5). The solution was diluted ([…]) in additional buffer (final pH 9.5-10) and the absorbance spectrum measured. A stock solution (1.2×10^-3 M) of Vita Blue was prepared in DMSO, diluted into citrate buffer (0.1 M, pH 5 2) to give a final concentration of 1.6×10^-5 M and the absorbance spectrum measured. A stock solution (8.2×10^-3 M) of VBDB was prepared in DMSO and diluted into pyrophosphate buffer (0.1 M, pH 7.2) to give a final concentration of 8.1×10^-5 M and the absorbance spectrum measured on a Beckman model DU-6UV visible spectrophotometer.
(§1) Finally, the spectral characteristics of compounds 1-9 was determined. The extinction coefficients and quantum yields or compounds 1-9 were determined at pH 9.5. The extinction coefficient and quantum yield of monoprotonated Vita Blue was also determined at pH 5.2. The extinction coefficient and the quantum yield of VBDB were determined at pH 7.2.

[3] = Fluorescence emission maximum and quantum yield; assay type: physicochemical; conditions: for red shift of emission maxima vs carboxy analogs: compared to carboxy analogs 1, 4 and 7; for effect of sulfo group on extinction coefficient and quantum yield: compared to carboxy analogs 1 and 7
Procedure: Second, quantum yields of compounds 1-9 and 14 were measured. Solutions (1×10^-6 M) of compounds 1-9 were prepared in carbonate/ bicarbonate buffer (pH 9.5). Fluorescence emission spectra were measured on a Perkin-Elmer MPF-2A fluorescence spectrophotometer in 3-mL disposable plastic cuvettes. The excitation wavelength was set 30 nm to the red of the maximum excitation wavelength and the emission spectra measured. The area under the emission spectrum was measured (F). The quantum yield (.PHI.) was determined using the following equation, F-kIo .PHI.εcb, where F is the fluorescence, k is a fluorimeter constant, Io is the light intensity at the exciting wavelength, ε is the extinction coefficient at the exciting wavelength, c is the concentration of the dye, and b is the pathlength of the cuvette. The value of k was determined for three different emission wavelength regions by using literature values of .PHI. and measuring the fluorescence of fluorescein (470-670 nm, .PHI.=0.92), eosin (500-700 nm, .PHI.=0.19) and allophycocyanin (Applied BioSystems, 600-800 nm, .PHI.=0.68). The value of Io was determined from a table that was generated by scanning the range of exciting wavelengths on the fluorescence spectrophotometer with the emission monochrometer open; a piece of white paper was placed in the sample holder to reflect the exciting light. The concentration of the dyes were 0.6-1.0 uM; this value in each case was below the concentration ([…]) required in order for the equation to be valid.
as §1

[4] = Absorbance titration of Vita Blue; assay type: physicochemical
Procedure: Absorbance titration of Vita Blue then was measured. To a plastic cuvette (3 mL) was added the following solutions: citrate buffer (0.1 mL, 0.1 M, pH 4.2), pyrophosphate buffer (0.1 mL, 0.1 M, pH 6.2), EPPS buffer (0.1 mL, 0.1 M, pH 8.4), water (2.6 mL), HCl solution (5 uL, 6 N) and Vita Blue solution (8 or 40 uL, […]). The final concentration of Vita Blue was 3.4×10^-6 or 1.7×10^-5 M. The initial pH was approximately 3. Aliquots of NaOH solution were added (1-3 uL, 4 N) and the pH and the absorbance spectrum from 700 to 400 nm measured.

[5] = Fluorescence emission spectra of Vita Blue at varying pH; assay type: physicochemical
Procedure: Fluorescence emission spectra of Vita Blue also was determined. To each of five plastic cuvettes (3 mL) were added one of the following buffered solutions (0.1 M): citrate buffer (pH 4.21), pyrophosphate buffer at three pH values (6.22, 7.21, 9.05), and EPPS buffer (pH 8.37). Vita Blue solution (5 uL, 1.25×10^-3 M) was added, and the fluorescence emission spectra from 450 to 650 nm was measured. The excitation wavelength was 540 nm.

[6] = cited from earlier work
[7] = pH 5.2 (monoprotonated Vita Blue)

Abs Max ([2]; pH 9.5) [nm] | ε (extinction coefficient) ([2]; pH 9.5) [M⁻¹ cm⁻¹] | EM Max ([3]; pH 9.5) [nm] | Quantum Yield ([3]; pH 9.5, dianionic form) | Compound | also measured
– | – | – | – | O=C1OC2(c3ccccc31)c1cc(Br)c(O)c(Br)c1Oc1c2cc(Br)c(O)c1Br [eosin] | quantum yield, literature value [1]: 0.19
– | – | – | – | CC(=O)Oc1ccc2c(c1)Oc1cc(OC(C)=O)ccc1C21OC(=O)c2ccccc21 [FDA, fluorescein diacetate, reference compound] | retention of initial fluorescence by stained cells over time (human white blood cells): did not retain their initial fluorescence over time
595 | 44000 | 660 | 0.14 | O=C(O)c1ccccc1-c1c2ccc3cc(O)ccc3c2oc2c1ccc1cc(=O)ccc12 [Compound 7, naphthofluorescein] | –
549 | 24000 | 581 | 0.05 | O=C(O)c1ccccc1-c1c2c3ccccc3c(=O)c(Br)c-2oc2c(Br)c(O)c3ccccc3c12 [Compound 5, 1,2,7,8-Dibenzo-4.5-dibromofluorescein] | excitation maxima compared to parent dyes [2]: at longer wavelengths; extinction coefficient and quantum yield compared to parent dyes [3]: lower than the parent dyes
605 | 32000 | 682 | 0.05 | O=C(O)c1ccccc1-c1c2ccc3c(Br)c(O)ccc3c2oc2c1ccc1c(Br)c(=O)ccc12 [Compound 8, 4,10 Dibromonaphthofluorescein] | –
– | – | – | – | allophycocyanin | quantum yield, literature value [1]: 0.68
497 | 78000 | 517 | 0.92 | O=c1ccc2c(-c3ccccc3S(=O)(=O)O)c3ccc(O)cc3oc-2c1 [Compound 2, Sulfonefluorescein] | red shift of absorbance maxima vs carboxy analogs [2]: 6-14 nm; red shift of emission maxima vs carboxy analogs [3]: 1-5 nm; effect of sulfo group on extinction coefficient and quantum yield [3]: little effect
609 | 36000 | 665 | 0.15 | O=c1ccc2c(ccc3c(-c4ccccc4S(=O)(=O)O)c4ccc5cc(O)ccc5c4oc32)c1 [Compound 9] | excitation maxima compared to parent dyes [2]: at longer wavelengths; red shift of absorbance maxima vs carboxy analogs [2]: 6-14 nm; Abs Max [2, 7]: 524 nm; ε (extinction coefficient) [2, 7]: 13000 M⁻¹ cm⁻¹; extinction coefficient and quantum yield compared to parent dyes [3]: lower than the parent dyes; separation of emission maxima of monoanionic and dianionic forms [3]: 100 nm; red shift of emission maxima vs carboxy analogs [3]: 1-5 nm; effect of sulfo group on extinction coefficient and quantum yield [3]: little effect; EM Max [3, 7]: 570 nm; Quantum Yield ([3]; pH 5.2, monoanionic form): 0.04; absorbance peak maximum (apparent dimer) ([4]; 1.7×10^-5 M, pH 3.10, 4.06 and 6.45): 600 nm; isobestic point, absorbance titration ([4]; 3.4×10^-6 M): approximately 540 nm; isobestic point, emission spectra ([5]; excitation 540 nm, varying pH): 630 nm; dual fluorescence ([5]; mono- and diprotonated forms): showed dual fluorescence
534 | 81000 | 565 | 0.24 | O=C(O)c1ccccc1-c1c2c3ccccc3c(=O)cc-2oc2cc(O)c3ccccc3c12 [Compound 4, 1,2,7,8 dibenzofluorescein] | –
522 | 57000 | 545 | 0.20 | CN(C)c1ccc2c(-c3ccccc3C(=O)O)c3ccc(=O)cc-3oc2c1 [Compound 3, Rhodol] | –
541 | 81000 | 567 | 0.48 | O=c1cc2oc3cc(O)c4ccccc4c3c(-c3ccccc3S(=O)(=O)O)c-2c2ccccc12 [Compound 6, 1,2,7,8-Dibenzosulfonefluorescein] | red shift of absorbance maxima vs carboxy analogs [2]: 6-14 nm; red shift of emission maxima vs carboxy analogs [3]: 1-5 nm; quantum yield vs carboxy analog ([3]; compared to compound 4): twice the quantum yield
491 | 80000 | 516 | 0.92 | O=C(O)c1ccccc1-c1c2ccc(=O)cc-2oc2cc(O)ccc12 [Compound 1, fluorescein] | quantum yield, literature value [1]: 0.92; Quantum Yield ([6]; background): 0.93; difference of pKa2 and pKa3 ([6]; fluorescein and related compounds): 2.3 units

— patent US5066580A, “Xanthene dyes that emit to the red of fluorescein” (priority 1990, dated 1991)
